Like-named read-outs stand apart in the source and are kept apart here.
How the values were obtained:
HeLa cells [1] = test: Inhibition of cellular proliferation, SRB assay in HeLa cells; assay type: cell-based; settings: for IC50: HeLa cells, SRB assay; for fold increase in potency on epoxidation at C22-C23: epoxide compared with parent taccalonolide
Procedure: The determination of IC50 values was performed on taccalonolide material after NMR analysis and subsequent lyophilization. Ethanol or DMSO was used as the vehicle for all cellular studies.
The antiproliferative potencies of the taccalonolides were evaluated in HeLa cells using the SRB assay. Several new taccalonolides with low nanomoloar potency were identified, Table 1.

[2] = system: human mammary epithelial cells; test: Cytotoxicity to normal cells; assay type: cell-based; settings: concentrations 5 to 100-fold their IC50 values in HeLa
[3] = system: purified porcine brain tubulin; test: Tubulin polymerization followed turbidimetrically; assay type: biochemical; settings: 10 μM; 2 mg/ml tubulin, 10% glycerol, 1 mM GTP, 37° C., OD340
Procedure: FIG. 5—Effect of the taccalonolides on purified porcine brain tubulin. […] Tubulin polymerization was monitored by turbidity measurement at OD340.
The ability of these new potent taccalonolides to interact directly with tubulin was assessed by incubating purified porcine brain tubulin at a concentration of 2 mg/ml in the presence of 10% glycerol and 1 mM GTP, which allows for a baseline level of tubulin polymerization that can be followed turbidimetrically (FIG. 5).

HeLa cells [4] = test: Interphase microtubule bundling by indirect immunofluorescence; assay type: cell-based; settings: 18 h; 200 nM AF, 200 nM AI, 70 nM AJ
Procedure: FIGS. 2A-D—Effect of the taccalonolides on interphase cells. HeLa cells were treated for 18 h with vehicle (FIG. 2A), 200 nM taccalonolide AF (FIG. 2B), 200 nM taccalonolide AI (FIG. 2C), or 70 nM taccalonolide AJ (FIG. 2D). Interphase microtubule structures were visualized by indirect immunofluorescence using a β-tubulin antibody.
(§1) Cellular microtubules in interphase and mitotic HeLa cells were visualized using indirect immunofluorescence techniques as previously described (Tinley et al., 2003). […] Representative images of interphase and mitotic cells were acquired using a Nikon Eclipse 80i fluorescence microscope and compiled using NIS Elements AR 3.0 software.

WTβIII versus HeLa cells = test: Relative resistance, βIII-tubulin expressing cell line pair; assay type: cell-based
Procedure: (§2) FIG. 7—Effect of the taccalonolides in drug resistant and sensitive cells. IC50 values for inhibition of cellular proliferation for taccalonolides AF and AJ were determined in drug sensitive and drug resistant cell lines. The HeLa cell pair evaluated the effect of βIII tubulin expression on cell sensitivity and the ability of compounds to overcome drug resistance mediated by βIII tubulin expression. The SK-OV-3 cell line pair was used to evaluate the effects of the expression of P-glycoprotein (Pgp) on cell sensitivity and the ability of compounds to overcome Pgp-mediated drug resistence. The effects of the taccalonolides on the drug senstive prostate cancer cell line PC-3 are also presented. IC50 values were calculated from an average of 3-4 independent experiments, each performed in triplicate.
(§3) The HeLa cervical cancer cell line, the SK-OV-3 ovarian cancer cell line and the PC-3 prostate cancer cell line were obtained from American Type Tissue Culture Collection (Manassas, Va.) and grown in Basal Media Eagle (BME) or RPMI 1640 medium (Invitrogen; Carlsbad, Calif.) supplemented with 10% fetal bovine serum (Hyclone; Logan, Utah) and 50 μg/ml gentamicin sulfate (Invitrogen). […]
(§4) The antiproliferative and cytotoxic effects of the taccalonolides were evaluated using the SRB assay (Skehan et al., 1990, Boyd and Paull, 1995) as previously described (Tinley et al., 2003). […]

HeLa cells [5] = test: Mitotic spindle structures by indirect immunofluorescence; assay type: cell-based; settings: 18 h; 125 nM AF, 200 nM AI, 35 nM AJ
Text: FIGS. 4A-D—Effect of the taccalonolides on mitotic spindles. […] The microtubule structures in mitotic cells were visualized by indirect immunofluorescence using a β-tubulin antibody.
as §1
The effects of the taccalonolides on mitotic spindle structures were evaluated to test whether they caused mitotic spindle defects leading to cell cycle arrest. β-tubulin and DNA were visualized in HeLa cells by indirect immunofluorescence and DAPI staining, respectively. […] These mitotic cells contained multiple abnormal mitotic spindles, which is another common effect of microtubule stabilizing agents (FIGS. 4A-D).

[6] = system: MDA-MB-231 human breast tumors; test: Antitumor activity against MDA-MB-231 tumors in nude mice; assay type: in vivo
Procedure: FIG. 6—Antitumor activity of taccalonolide AF. […] Tumor size was measured using calipers and volume calculated with the formula: Tumor volume (mm^3)=width (mm)×length (mm)×height (mm) and graphed as median tumor size for days 0-8.
The ability of taccalonolide AF to inhibit the growth of the aggressive human breast tumor MDA-MB-231 in a murine host was determined Taccalonolide AF was administered at a dose of 2.5 mg/kg on days 1 and 3.

[7] = system: SK-OV-3/MDR-1-6/6 versus SK-OV-3 cells; test: Relative resistance, P-glycoprotein expressing cell line pair; assay type: cell-based; settings: P-glycoprotein expressing SK-OV-3 pair
Procedure: as §2, §3, §4

[8] = cited from earlier work
[9] = system: cell lines that overexpress Pgp; settings: Pgp overexpressing cell lines; cited from earlier work
[10] = system: cell lines that overexpress MRP7; settings: MRP7 overexpressing cell lines; cited from earlier work
[11] = system: doxorubicin- and paclitaxel-resistant Pgp-expressing tumor, Mam17/ADR; settings: cited from earlier work
[12] = system: isogenic HeLa-derived cell line that expresses the βIII isotype of tubulin; settings: cited from earlier work
[13] = parent taccalonolide, read-out: IC50 (nM), Taccalonolide

CC(=O)O[C@H]1C2[C@@H]([C@@H](O)[C@@H](O)[C@H]3C[C@@H]4O[C@@H]4[C@H](OC(C)=O)[C@]23C)[C@@H]2[C@@H](O)[C@@H]3[C@H]([C@H](C)C=C4OC(=O)[C@@](C)(O)[C@@]43C)[C@@]2(C)[C@H]1OC(C)=O (some centres unmarked) [TA-NaBH4-10]
IC50 (HeLa cells [1]; [13]): 20000 nM

CC(=O)O[C@@H]1[C@H](O)[C@@H]2C([C@H](OC(C)=O)[C@H](OC(C)=O)[C@]3(C)[C@@H]4[C@@H]([C@H](O)[C@@H]23)[C@]2(C)C(=C[C@H]4C)OC(=O)[C@@]2(C)O)[C@]2(C)[C@@H]1C[C@@H]1O[C@@H]1[C@@H]2OC(C)=O (some centres unmarked) [TA-NaBH4-12]
IC50 (HeLa cells [1]; [13]): 7500 nM

CC(=O)O[C@H]1C(=O)[C@H]2C[C@@H]3O[C@@H]3[C@H](OC(C)=O)[C@]2(C)C2[C@@H]1[C@@H]1[C@@H](O)[C@@H]3[C@H]([C@H](C)C=C4OC(=O)[C@@](C)(O)[C@@]43C)[C@@]1(C)[C@@H](OC(C)=O)[C@H]2OC(C)=O (some centres unmarked) [TB-AC-16]
IC50 (HeLa cells [1]; [13]): 40000 nM

CC(=O)O[C@@H]1[C@H]2[C@H]3C([C@H](OC(C)=O)[C@H](OC(C)=O)[C@]2(C)[C@@H]2[C@@H]1[C@]1(C)C(=C[C@@]2(C)OO)OC(=O)[C@@]1(C)O)[C@]1(C)[C@H](C[C@@H]2O[C@@H]2[C@@H]1OC(C)=O)C(=O)[C@@H]3O (some centres unmarked) [Taccalonolide AC]
IC50 (HeLa cells [1]; Homo sapiens, parent taccalonolide, read-out: IC50 (nM), Taccalonolide): > 50000 nM | IC50 (HeLa cells [1]; Homo sapiens, read-out: IC50 value): > 50000 nM

CC(=O)O[C@@H]1[C@H]2[C@H]3[C@H]([C@H](OC(C)=O)[C@H](OC(C)=O)[C@]2(C)[C@H]2[C@H](C)[C@H]4O[C@]45OC(=O)[C@@](C)(O)[C@]5(C)[C@@H]12)[C@]1(C)[C@H](C[C@@H]2O[C@@H]2[C@@H]1OC(C)=O)C(=O)[C@@H]3O [Taccalonolide AF]
cytotoxicity of normal cells [2]: No cytotoxicity | rate and extent of tubulin polymerization [3]: dramatically increased | bundling of interphase microtubules (HeLa cells [4]): formation of thick bundled microtubule tufts | fold increase in potency on epoxidation at C22-C23 (HeLa cells [1]; HeLa IC50): 234 fold | relative resistance (IC50 resistant line / IC50 parental line) (WTβIII versus HeLa cells): much lower than paclitaxel | effect on mitotic spindles (HeLa cells [5]): mitotic arrest of cells with multiple abnormal mitotic spindles | antitumor activity compared to paclitaxel positive control ([6]; 2.5 mg/kg days 1 and 3 vs 10 mg/kg paclitaxel days 1, 3 and 5, first week of treatment): greater antitumor activity than the positive control | antitumor activity compared to vehicle treated controls ([6]; 2.5 mg/kg on days 1 and 3, preliminary): sufficient to observe antitumor activity | relative resistance (IC50 resistant line / IC50 parental line) [7]: much lower than paclitaxel

CC(=O)O[C@H]1[C@H]2[C@H]([C@@H]3[C@@H](O)[C@@H]4[C@H]([C@H](C)[C@@H]5O[C@@]56OC(=O)[C@@](C)(O)[C@]46C)[C@@]3(C)[C@H]1OC(C)=O)[C@@H](O)C(=O)[C@H]1C[C@@H]3O[C@@H]3[C@H](OC(C)=O)[C@]21C [Taccalonolide AJ]
cytotoxicity of normal cells [2]: No cytotoxicity | rate and extent of tubulin polymerization [3]: dramatically increased | bundling of interphase microtubules (HeLa cells [4]): formation of thick bundled microtubule tufts | fold increase in potency on epoxidation at C22-C23 (HeLa cells [1]; HeLa IC50): 743 fold | relative resistance (IC50 resistant line / IC50 parental line) (WTβIII versus HeLa cells): much lower than paclitaxel | effect on mitotic spindles (HeLa cells [5]): mitotic arrest of cells with multiple abnormal mitotic spindles | relative resistance (IC50 resistant line / IC50 parental line) [7]: much lower than paclitaxel

CC(=O)O[C@@H]1[C@H]2[C@H]3[C@H]([C@H](OC(C)=O)[C@H](OC(C)=O)[C@]2(C)[C@@H]2[C@@H]1[C@]1(C)C(=C[C@H]2C)OC(=O)[C@@]1(C)O)[C@]1(C)[C@H](C[C@@H]2O[C@@H]2[C@@H]1OC(C)=O)C(=O)[C@@H]3O [Taccalonolide A]
in vivo antitumor activity [8]: have in vivo antitumor activity | efficacy in vitro [9]: effective | efficacy in vitro [10]: effective | activity in vivo [11]: highly active

CC(=O)O[C@H]1[C@H]2[C@H]([C@@H]3[C@@H](O)[C@@H]4[C@H]([C@H](C)C=C5OC(=O)[C@@](C)(O)[C@@]54C)[C@@]3(C)[C@H]1OC(C)=O)[C@@H](O)C(=O)[C@H]1C[C@@H]3O[C@@H]3[C@H](OC(C)=O)[C@]21C [Taccalonolide B]
efficacy in vitro [9]: effective | efficacy in vitro [10]: effective

CC(=O)O[C@@H]1[C@H]2[C@@H]3[C@@H](O)C(=O)[C@H]4C[C@@H]5O[C@@H]5[C@H](OC(C)=O)[C@]4(C)[C@H]3C[C@H](OC(C)=O)[C@]2(C)[C@@H]2[C@@H]1[C@]1(C)C(=C[C@H]2C)OC(=O)[C@@]1(C)O [Taccalonolide E]
in vivo antitumor activity [8]: have in vivo antitumor activity | efficacy in vitro [9]: effective | efficacy in vitro [10]: effective | activity in vivo [11]: highly active

CC(=O)O[C@H]1[C@@H]2[C@H]([C@H](C)C=C3OC(=O)[C@@](C)(O)[C@@]32C)[C@]2(C)[C@@H]1C1=C(O)C(=O)[C@H]3C[C@@H]4O[C@@H]4[C@H](OC(C)=O)[C@]3(C)[C@H]1[C@H](OC(C)=O)[C@@H]2OC(C)=O [Taccalonolide H2, reference compound]
fold more potent than taccalonolide A (HeLa cells [1]; HeLa IC50): 7.4 fold

CC(=O)O[C@H]1C[C@H]2[C@H]([C@@H]3[C@@H](O)[C@@H]4[C@H]([C@H](C)C=C5OC(=O)[C@@](C)(O)[C@@]54C)[C@]31C)[C@@H](O)C(=O)[C@H]1C[C@@H]3O[C@@H]3[C@H](OC(C)=O)[C@@]12C [Taccalonolide N]
in vivo antitumor activity [8]: have in vivo antitumor activity | efficacy in vitro [9]: effective | efficacy in vitro [10]: effective

CC(=O)O[C@@]12CO[C@@H]1C[C@H](O)[C@@]1(C)C(=O)[C@H](O)C3=C(C)[C@@H](OC(=O)[C@H](O)[C@@H](NC(=O)OC(C)(C)C)c4ccccc4)C[C@@](O)([C@@H](OC(=O)c4ccccc4)[C@H]21)C3(C)C [docetaxel]
sensitivity of βIII-tubulin-overexpressing cell line compared with parental HeLa cells [12]: less sensitive

C/C(=C\c1csc(C)n1)[C@@H]1C[C@@H]2O[C@]2(C)CCC[C@H](C)[C@H](O)[C@@H](C)C(=O)C(C)(C)[C@@H](O)CC(=O)O1 [epothilone B]
sensitivity of βIII-tubulin-overexpressing cell line compared with parental HeLa cells [12]: less sensitive

CC[C@]1(O)C[C@@H]2CN(CCc3c([nH]c4ccccc34)[C@@](C(=O)OC)(c3cc4c(cc3OC)N(C)[C@H]3[C@@](O)(C(=O)OC)[C@H](OC(C)=O)[C@]5(CC)C=CCN6CC[C@]43[C@@H]65)C2)C1 [vinblastine]
sensitivity of βIII-tubulin-overexpressing cell line compared with parental HeLa cells [12]: less sensitive

Reference: patent US9340572B2, “Taccalonolide microtubule stabilizers” (THE BOARD OF REGENTS OF THE UNIVERSITY OF TEXAS SYSTEM, priority 2011, dated 2016)
